From patent US20110053897A1 (IRM LLC, priority 2009, published 2011)

Tests used:
Syk kinase [1] = target: T1, Syk kinase (Homo sapiens, UniProt P43405); test: Syk kinase inhibition, Caliper LabChip off-chip mobility-shift kinase assay; assay type: biochemical; conditions: Caliper LabChip assay; read-out: Syk Enzyme IC50
T1 construct: purchased
Method in brief: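 Purified Syk pre-incubated 15 min with compound in 100 mM HEPES pH 7.5, 1 mM DTT, 10 mM MgCl2 or MnCl2, 0.002% Brij-35, then 1.5 μM fluorescein peptide and ATP at apparent KM added; 1–1.5 h at room temperature, 4% DMSO, EDTA stop. Microfluidic mobility-shift product/substrate conversion gave % inhibition; IC50 from 12-point series (10–0.00003 μM) by 4-parameter fit.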

[2] = Pharmacokinetic parameters (bioavailability, metabolic stability, half life, compound exposure); conditions: qualitative statement, values not given
Syk kinase [3] = target: T1, Syk kinase; test: Selectivity for Syk kinase over other kinases, receptors, enzymes and transporters; assay type: biochemical; conditions: qualitative statement, values not given

| IC50 (Syk kinase [1]) [nM] | pharmacokinetic parameters, such as bioavailablity, enhanced metabolic stability, half life and compound exposure [2] | selectivity for Syk kinase over other kinases, as well as other receptors, enzymes and transporters (Syk kinase [3]) | Structure (SMILES) |
| --- | --- | --- | --- |
| 7 | improved pharmacokinetic parameters | – | CC(C)(C)Nc1nc(Nc2cnccn2)cc2ccn(C[C@@H](O)CO)c(=O)c12 [compound 668, (R)-8-(tert-butylamino)-2-(2,3-dihydroxypropyl)-6-(pyrazin-2-ylamino)-2,7-naphthyridin-1(2H)-one] |
| 57 | – | improved Syk selectivity | CC(C)(C)Nc1nc(Nc2cc(C(C)(C)O)ncn2)cc2ccn(C3COC3)c(=O)c12 [compound 734] |
| 45.7 | – | – | [2H]C([2H])([2H])n1ccc2cc(Nc3cnccn3)nc(N[C@@H](C)CO)c2c1=O [compound 1050] |
| 60.4 | – | – | [2H]C([2H])([2H])n1ccc2cc(Nc3cc(Cl)ccn3)nc(N[C@@H](C)CO)c2c1=O [compound 1051] |
| 236 | – | – | [2H]C([2H])([2H])n1ccc2cc(Nc3cc(Cl)ccn3)nc(NC[C@@H]3CCCO3)c2c1=O [compound 1052] |
